Reference: US20060111443A1, “Preventive therapeutic composition for muscular fatigue, pulled muscle and disease attributed thereto” (priority 2002, published 2006)

Assays:
[1] = repeated administration of 300 mg a day; cited from earlier work
healthy subjects = assay: Analyzing test of blood components (myoglobin, lactic acid, CPK) after exercise stress; format: in vivo, human; conditions: value just after exercise stress = 100%
Description: To 20 healthy subjects (14 males and 6 females), was given an exercise stress of 15 km running within a limited time of 2 hours. The 20 subjects who run the whole distance within the limited time were divided into 2 groups by the arrival order, that is, one group consisting of 10 subjects of odd-numbered order of arrival (8 male subjects and 2 female subjects) and the other group consisting of 10 subjects of even-numbered order of arrival (6 male subjects and 4 female subjects). To the group of odd numbers was administered tranilast (hereinafter referred to as Medicine administration group) and to the group of even numbers was not administered (hereinafter referred to as Control group). […]
In each group, bloods were collected at a time of just before, just after, 3 days and 7 days after the exercise stress. And, blood components considered relevant to muscular fatigue and muscular damage (myoglobin, lactic acid and CPK) were analyzed, and relative degrees of changes of blood concentrations which are converted into relative values to the concentrations just after the exercise stress set as 100% were calculated.

COc1ccc(/C=C/C(=O)Nc2ccccc2C(=O)O)cc1OC [tranilast, N-(3,4-dimethoxycinnnamoyl)anthranilic acid]
time at which tranilast concentration in blood reached the maximum [1]: 2 days
relative degree of change of blood concentration of CPK (healthy subjects; 3 days after exercise stress, control 160% or more): about 110%
relative degree of change of blood concentration of CPK (healthy subjects; 7 days after exercise stress, control about 90%): about 60%
